Laboratory results taken from the RepoRT retention time repository (doi:10.1016/j.foodchem.2021.129757).
Values belong to the compound of their own block, whether it stands above or below them.

Assays:
Conditions in all cases: stereoisomer not certain
[1] = RP, Phenomenex Synergi Hydro-RP, 150 × 2 mm, 4 µm, 30 °C, 0.5 mL/min, estimated dead time 0.6 min; A: water + 0.1% formic acid, pH 3; B: acetonitrile + 0.1% formic acid, pH 3; gradient (min/%B) 0/5 1/5 35/45 40/100 45/100
[2] = RP, Agilent ZORBAX Eclipse XDB-C18, 100 × 2.1 mm, 1.8 µm, 50 °C, 0.4 mL/min, estimated dead time 0.55 min; A: water + 0.1% formic acid, pH 3; B: methanol + 0.1% formic acid, pH 3; gradient (min/%B) 0/2 10/100 14.5/100 14.51/2 16.5/2
[3] = RP, Phenomenex Luna Omega Polar C18, 100 × 2.1 mm, 1.6 µm, 40 °C, 0.5 mL/min, estimated dead time 0.44 min; A: water + 0.1% formic acid + 10 mM ammonium formate; B: acetonitrile; gradient (min/%B) 0/5 8/20 10/100 12/100 12.1/5 14/5
[4] = RP, 50 × 0.5 mm, 2.7 µm, 35 °C, 0.01 mL/min, estimated dead time 0.62 min; A: water + 0.1% formic acid, pH 3; B: acetonitrile + 0.1% formic acid, pH 3; gradient (min/%B) 0/5 12/95 14/95 16/5
[5] = RP, Merck Supelco SUPELCOSIL LC-C18, 250 × 4.6 mm, 5 µm, 40 °C, 1 mL/min, estimated dead time 2.6 min; A: water + 0.1% trifluoroacetic acid, pH 2; B: acetonitrile + 0.1% trifluoroacetic acid, pH 2; gradient (min/%B) 0/5 45/35 47/75 49/35 50/5
[6] = RP, 100 × 0.5 mm, 2.7 µm, 45 °C, 0.015 mL/min, estimated dead time 0.83 min; A: water + 0.9% formic acid; B: acetonitrile + 0.9% formic acid; gradient (min/%B) 0/1 0.5/1 4/95 4.5/1 5/1
[7] = RP, Phenomenex Luna Omega Polar C18, 100 × 2.1 mm, 1.6 µm, 40 °C, 0.5 mL/min, estimated dead time 0.44 min; A: water + 0.5% formic acid; B: acetonitrile + 0.5% formic acid; gradient (min/%B) 0/5 3/50 3.1/100 5/100 5.1/5 7/5
[8] = RP, Phenomenex Luna C18, 150 × 4.6 mm, 3 µm, 25 °C, 0.5 mL/min, estimated dead time 3.2 min; A: water + 0.1% formic acid, pH 3; B: acetonitrile + 0.1% formic acid, pH 3; gradient (min/%B) 0/0 30/30 35/40 50/80 52/80 60/0 65/0
[9] = RP, Waters ACQUITY UPLC BEH Shield RP18, 100 × 2.1 mm, 1.7 µm, 30 °C, 0.6 mL/min, estimated dead time 0.37 min; A: water + 0.1% formic acid, pH 3; B: acetonitrile + 0.1% formic acid, pH 3; gradient (min/%B) 0/0 2/0 7/10 22/95 22.1/0 26/0
[10] = Other, Phenomenex Kinetex PFP, 100 × 4.6 mm, 2.6 µm, 35 °C, 1.5 mL/min, estimated dead time 0.71 min; A: water + 0.1% trifluoroacetic acid, pH 2; B: acetonitrile + 0.1% trifluoroacetic acid, pH 2; gradient (min/%B) 0/1 7/7.5 14/7.6 17/10 18.5/12 20/12.5 24/30 25/90 25.1/1 32/1
[11] = RP, Phenomenex Synergi Hydro-RP, 250 × 2 mm, 4 µm, 25 °C, 0.2 mL/min, estimated dead time 2.5 min; A: water + 0.1% formic acid, pH 3; B: acetonitrile + 0.1% formic acid, pH 3; gradient (min/%B) 0/0.5 7/0.5 12/12.5 25/16.3 47/35 48/65 50/65 50.1/0.5
[12] = RP, Agilent ZORBAX RRHD Eclipse Plus C18, 50 × 2.1 mm, 1.8 µm, 30 °C, 0.4 mL/min, estimated dead time 0.28 min; A: water + 0.1% formic acid, pH 3; B: acetonitrile + 0.1% formic acid, pH 3; gradient (min/%B) 0/1 5/10 8/25 9.1/99 10/99 12/99
[13] = RP, Agilent ZORBAX RRHD Eclipse Plus C18, 50 × 2.1 mm, 1.8 µm, 30 °C, 0.4 mL/min, estimated dead time 0.28 min; A: water + 0.1% formic acid, pH 3; B: acetonitrile + 0.1% formic acid, pH 3; gradient (min/%B) 0/1 5/10 8/25 9.1/99 10/99 12/1
[14] = RP, Agilent InfinityLab Poroshell 120 EC-C18, 100 × 3 mm, 2.7 µm, 25 °C, 0.4 mL/min, estimated dead time 1.1 min; A: water + 0.1% formic acid, pH 3; B: acetonitrile + 0.1% formic acid, pH 3; gradient (min/%B) 0/5 10/25 20/40 24/90 25/90 26/5 30/5
[15] = Other, Phenomenex Kinetex PFP, 100 × 4.6 mm, 5 µm, 45 °C, 0.6 mL/min, estimated dead time 1.8 min; A: water + 0.1% trifluoroacetic acid, pH 2; B: methanol; gradient (min/%B) 0/40 20/72 21/40
[16] = RP, Waters ACQUITY UPLC BEH C18, 100 × 2.1 mm, 1.7 µm, 65 °C, 0.4 mL/min, estimated dead time 0.55 min; A: water + 0.1% formic acid, pH 3; B: 80% acetonitrile + 20% acetone + 0.1% formic acid, pH 3; gradient (min/%B) 0/0 5/100 5.5/0 6/0
[17] = RP, Waters ACQUITY UPLC HSS T3, 100 × 2.1 mm, 50 °C; A: water + 0.1% formic acid, pH 3; B: 30% methanol + 70% acetonitrile + 0.1% formic acid, pH 3; gradient (min/%B) 0/5 1/8 2/15 3/40 4/70 4.5/100 5/100 6.4/100 6.6/5 6.8/5 7/5
[18] = RP, Merck LiChrospher RP-18, 250 × 4 mm, 5 µm, 35 °C, 0.3 mL/min, estimated dead time 6.7 min; A: water + 0.5% formic acid; B: acetonitrile + 0.5% formic acid; gradient (min/%B) 0/5 10/5 30/15 45/20 65/20 95/54 110/63 115/5 135/5
[19] = RP, Waters ACQUITY UPLC BEH Shield RP18, 150 × 2.1 mm, 1.7 µm, 40 °C, 0.4 mL/min, estimated dead time 0.83 min; A: water + 0.1% formic acid, pH 3; B: acetonitrile + 0.1% formic acid, pH 3; gradient (min/%B) 0/0 30/50 31/100 37/100 37.1/0
[20] = RP, Waters Atlantis T3, 100 × 2.1 mm, 3 µm, 40 °C, 0.3 mL/min, estimated dead time 0.73 min; A: water + 0.1% trifluoroacetic acid, pH 2; B: acetonitrile + 0.1% trifluoroacetic acid, pH 2; gradient (min/%B) 0/10 1/10 6/40 7/50 8/50 14/70 16/80 20/10 25/10
[21] = RP, Waters ACQUITY UPLC HSS T3, 100 × 2.1 mm, 1.8 µm, 30 °C, 0.4 mL/min, estimated dead time 0.55 min; A: water + 0.1% formic acid, pH 3; B: acetonitrile + 0.1% formic acid, pH 3; gradient (min/%B) 0/0 2/0 15/100 22/100 22.1/0 26/0
[22] = RP, 150 × 2.1 mm, 2.6 µm, 40 °C, 0.35 mL/min, estimated dead time 0.94 min; A: water + 0.1% formic acid, pH 3; B: acetonitrile + 0.1% formic acid, pH 3; gradient (min/%B) 0/0 1/5 7/45 8.5/80 10.5/80 11/5 12/5
[23] = RP, 150 × 2.1 mm, 2.6 µm, 40 °C, 0.35 mL/min, estimated dead time 0.94 min; A: water + 0.1% formic acid, pH 3; B: acetonitrile + 0.1% formic acid, pH 3; gradient (min/%B) 0/0 1/0 12.5/100 14/100 14.2/0 15/0

- LC retention time [1]: 11.3 min
- LC retention time [2]: 3.7 min
- LC retention time [3]: 4.95 min
- LC retention time [4]: 3.43 min
- LC retention time [5]: 16.8 min
- LC retention time [6]: 2.32 min
- LC retention time [7]: 1.99 min
- LC retention time [8]: 15.9 min
- LC retention time [9]: 11.5 min
Compound: Oc1cc(O)c2c(c1)OC(c1ccc(O)c(O)c1)C(O)C2 (single isomer, unassigned; (-)) [(-)-Epicatechin]

- LC retention time [10]: 9.72 min
- LC retention time [11]: 15.9 min
Compound: O=C(O)c1c(O)cc(O)cc1O [2,4,6-trihydroxybenzoic acid]

- LC retention time [10]: 14.7 min
Compound: O=Cc1ccc(O)cc1O [2,4-dihydroxybenzaldehyde]

- LC retention time [12]: 2.82 min
- LC retention time [10]: 4.93 min
- LC retention time [13]: 4.25 min
Compound: O=C(O)c1cc(O)cc(O)c1 [3,5-Dihydroxybenzoic acid]

- LC retention time [10]: 14.8 min
Compound: Cc1cccc(C(=O)NCC(=O)O)c1 [3-methylhippuric acid]

- LC retention time [10]: 14.5 min
Compound: Cc1ccc(C(=O)NCC(=O)O)cc1 [4-methylhippuric acid]

- LC retention time [10]: 22.1 min
Compound: COc1cccc(O)c1C(=O)O [6-Methoxysalicyclic acid]

- LC retention time [2]: 3.52 min
- LC retention time [14]: 5.63 min
- LC retention time [5]: 29.1 min
- LC retention time [6]: 3.19 min
- LC retention time [7]: 3.17 min
- LC retention time [15]: 10.8 min
Compound: Oc1cc(O)c2cc(O)c(-c3ccc(O)c(O)c3)[o+]c2c1 [Cyanidin]

- LC retention time [1]: 26.7 min
- LC retention time [16]: 3.02 min
- LC retention time [17]: 3.88 min
- LC retention time [2]: 6.86 min
- LC retention time [18]: 97.6 min
- LC retention time [14]: 14.1 min
- LC retention time [3]: 9.66 min
- LC retention time [19]: 24.5 min
- LC retention time [12]: 9.29 min
- LC retention time [4]: 6.31 min
- LC retention time [5]: 43.8 min
- LC retention time [13]: 9.16 min
- LC retention time [6]: 3.2 min
- LC retention time [7]: 3.7 min
- LC retention time [20]: 10.2 min
- LC retention time [8]: 37.7 min
- LC retention time [11]: 52.3 min
- LC retention time [9]: 16.6 min
- LC retention time [21]: 11.6 min
Compound: O=c1c(O)c(-c2ccc(O)cc2)oc2cc(O)cc(O)c12 [Kaempferol]

- LC retention time [1]: 22.6 min
- LC retention time [17]: 3.75 min
- LC retention time [2]: 6.42 min
- LC retention time [18]: 91.1 min
- LC retention time [14]: 17.1 min
- LC retention time [3]: 9.48 min
- LC retention time [19]: 20.2 min
- LC retention time [4]: 5.79 min
- LC retention time [22]: 7.52 min
- LC retention time [23]: 7.14 min
- LC retention time [6]: 2.97 min
- LC retention time [7]: 3.57 min
- LC retention time [20]: 9.3 min
- LC retention time [15]: 18.6 min
- LC retention time [8]: 42.1 min
- LC retention time [11]: 47 min
- LC retention time [9]: 15.3 min
- LC retention time [21]: 10.8 min
Compound: O=c1cc(-c2ccc(O)c(O)c2)oc2cc(O)cc(O)c12 [Luteolin]

- LC retention time [10]: 1.52 min
Compound: O=C(O)CC(=O)O [Malonic acid]

- LC retention time [10]: 8.64 min
Compound: COC(=O)c1cc(O)c(O)c(O)c1 [Methyl 3,4,5-trihydroxybenzoate]

- LC retention time [10]: 15.3 min
Compound: COC(=O)c1ccc(O)c(O)c1 [Methyl 3,4-dihydroxybenzoate]

- LC retention time [2]: 5.37 min
- LC retention time [10]: 23 min
Compound: COC(=O)c1ccc(O)c(OC)c1 [Methyl vanillate]

- LC retention time [10]: 18.5 min
- LC retention time [11]: 27.6 min
Compound: O=Cc1c(O)cc(O)cc1O [Phloroglucinol aldehyde]

- LC retention time [1]: 20 min
- LC retention time [16]: 2.48 min
- LC retention time [2]: 5.24 min
- LC retention time [18]: 85.7 min
- LC retention time [14]: 14.7 min
- LC retention time [3]: 9.3 min
- LC retention time [19]: 17.9 min
- LC retention time [4]: 5.18 min
- LC retention time [5]: 31.6 min
- LC retention time [6]: 2.88 min
- LC retention time [7]: 2.96 min
- LC retention time [15]: 10.8 min
- LC retention time [8]: 38.8 min
- LC retention time [9]: 14.7 min
- LC retention time [21]: 10.4 min
Compound: Oc1ccc(C=Cc2cc(O)cc(O)c2)cc1 [Resveratrol]

- LC retention time [1]: 18.4 min
- LC retention time [2]: 5.41 min
- LC retention time [18]: 79.8 min
- LC retention time [14]: 11.5 min
- LC retention time [3]: 8.46 min
- LC retention time [19]: 14.6 min
- LC retention time [4]: 4.8 min
- LC retention time [5]: 31 min
- LC retention time [6]: 2.28 min
- LC retention time [20]: 8.18 min
- LC retention time [15]: 9.57 min
- LC retention time [8]: 30 min
- LC retention time [11]: 39.2 min
- LC retention time [9]: 13.7 min
- LC retention time [21]: 9.87 min
Compound: O=C(C=Cc1ccc(O)c(O)c1)OC(Cc1ccc(O)c(O)c1)C(=O)O (stereo not drawn) [Rosmarinic acid]
